Assay results taken from PubChem BioAssay (NCI).
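All cell lines were grown in 96-well plates and treated with compound for 48 hours. GI50: concentration for 50% inhibition of growth. At the TGI there is no net growth.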

How the values were obtained:
Assay in all cases: DTP human tumour cell line panel, 48 h
[1] = test system: UO-31 renal
[2] = test system: BT-549 breast
[3] = test system: SW-620 colon
[4] = test system: CAKI-1 renal
[5] = test system: DU-145 prostate
[6] = test system: OVCAR-3 ovarian
[7] = test system: HS 578T breast
[8] = test system: MDA-MB-435
[9] = test system: NCI-H460 lung
[10] = test system: T-47D breast
[11] = test system: MOLT-4 leukemia
[12] = test system: SF-268 CNS
[13] = test system: SNB-19 CNS
[14] = test system: MDA-MB-231 breast
[15] = test system: EKVX NSCLC
[16] = test system: SF-295 CNS
[17] = test system: OVCAR-4 ovarian
[18] = test system: HCC-2998 colon
[19] = test system: COLO 205 colon
[20] = test system: LOX IMVI melanoma
[21] = test system: PC-3 prostate
[22] = test system: UACC-62 melanoma
[23] = test system: SK-MEL-2 melanoma
[24] = test system: SR leukemia
[25] = test system: HL-60(TB) leukemia
[26] = test system: RXF 393 renal
[27] = test system: NCI-H226 lung
[28] = test system: M14 melanoma
[29] = test system: MALME-3M melanoma

**Q.** With CS(=O)(=O)c1ccc2c(c1)c1c(n2C(=O)c2ccc(Cl)cc2)CCCC1 as the molecule, how does the GI50 [1] read?
**A.** 3.22 µM

**Q.** And the TGI [1]?
**A.** > 100 µM

**Q.** And the GI50 [2]?
**A.** 1.64 µM

**Q.** What about the TGI [2] of the same molecule?
**A.** > 100 µM

**Q.** And the GI50 [3]?
**A.** 1.61 µM

**Q.** What about the TGI [3] of the same molecule?
**A.** > 100 µM

**Q.** And the GI50 [4]?
**A.** 2.19 µM

**Q.** And the TGI [4]?
**A.** > 100 µM

**Q.** What about the GI50 [5] of the same molecule?
**A.** 7.52 µM

**Q.** And the TGI [5]?
**A.** > 100 µM

**Q.** And the GI50 [6]?
**A.** 5.01 µM

**Q.** What about the TGI [6] of the same molecule?
**A.** 46.3 µM

**Q.** And the GI50 [7]?
**A.** 1.41 µM

**Q.** What about the TGI [7] of the same molecule?
**A.** > 100 µM

**Q.** What about the GI50 [8] of the same molecule?
**A.** 0.614 µM

**Q.** And the TGI [8]?
**A.** 1.51 µM

**Q.** And the GI50 [9]?
**A.** 1.5 µM

**Q.** What about the TGI [9] of the same molecule?
**A.** > 100 µM

**Q.** What about the GI50 [10] of the same molecule?
**A.** 2.54 µM

**Q.** And the TGI [10]?
**A.** > 100 µM

**Q.** What about the GI50 [11] of the same molecule?
**A.** 2.86 µM

**Q.** And the TGI [11]?
**A.** > 100 µM

**Q.** What about the GI50 [12] of the same molecule?
**A.** 21.5 µM

**Q.** And the TGI [12]?
**A.** > 100 µM

**Q.** What about the GI50 [13] of the same molecule?
**A.** 4.16 µM

**Q.** And the TGI [13]?
**A.** > 100 µM

**Q.** And the GI50 [14]?
**A.** 6.83 µM

**Q.** What about the TGI [14] of the same molecule?
**A.** > 100 µM

**Q.** What about the GI50 [15] of the same molecule?
**A.** 14 µM

**Q.** What about the TGI [15] of the same molecule?
**A.** > 100 µM

**Q.** What about the GI50 [16] of the same molecule?
**A.** 1.96 µM

**Q.** And the TGI [16]?
**A.** > 100 µM

**Q.** What about the GI50 [17] of the same molecule?
**A.** 21.1 µM

**Q.** And the TGI [17]?
**A.** > 100 µM

**Q.** And the GI50 [18]?
**A.** 16.8 µM

**Q.** What about the TGI [18] of the same molecule?
**A.** > 100 µM

**Q.** What about the GI50 [19] of the same molecule?
**A.** 18.9 µM

**Q.** And the TGI [19]?
**A.** > 100 µM

**Q.** What about the GI50 [20] of the same molecule?
**A.** 2.43 µM

**Q.** And the TGI [20]?
**A.** > 100 µM

**Q.** What about the GI50 [21] of the same molecule?
**A.** 4.75 µM

**Q.** What about the TGI [21] of the same molecule?
**A.** > 100 µM

**Q.** What about the GI50 [22] of the same molecule?
**A.** 1.27 µM

**Q.** What about the TGI [22] of the same molecule?
**A.** > 100 µM

**Q.** And the GI50 [23]?
**A.** 1.15 µM

**Q.** And the TGI [23]?
**A.** > 100 µM

**Q.** What about the GI50 [24] of the same molecule?
**A.** 1.1 µM

**Q.** And the TGI [24]?
**A.** > 100 µM

**Q.** And the GI50 [25]?
**A.** 1.13 µM

**Q.** And the GI50 [26]?
**A.** 4.23 µM

**Q.** What about the TGI [26] of the same molecule?
**A.** 40.7 µM

**Q.** What about the GI50 [27] of the same molecule?
**A.** 4.62 µM

**Q.** And the TGI [27]?
**A.** > 100 µM

**Q.** And the GI50 [28]?
**A.** 1.56 µM

**Q.** What about the TGI [28] of the same molecule?
**A.** > 100 µM

**Q.** And the GI50 [29]?
**A.** 7.23 µM

**Q.** And the TGI [29]?
**A.** > 100 µM
